Test results: US9464064B2, “HCV helicase inhibitors and methods of use thereof” (University of Kansas, priority 2011, dated 2016)

Target: T1, HCV NS3 helicase NS3h_1b(con1) (Hepatitis C virus genotype 1b, UniProt Q9WMX2)
T1 construct: truncated C-terminally His-tagged NS3 proteins lacking the N-terminal protease, called NS3h; His-tag (C); made in house
Experiment: MBHA screen of NCI mechanistic set library at 20 μM (percent inhibition, compound interference)
Assay type: biochemical
Conditions: compounds at 20 μM; for Inh. (%) (Inhibition): calculated from Equation 1
Method in brief: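 Molecular beacon-based DNA unwinding assay; compounds screened at 20 μM in triplicate, with DMSO-only negative and 500 nM dT20 positive controls. Fluorescence (ex 643/em 670 nm) was read before and 30 min after adding ATP to 1 mM. Percent inhibition came from the change relative to DMSO controls; interference from pre-ATP fluorescence versus DMSO controls.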

[1] = assay interference calculated with Equation 2 (fluorescence vs DMSO-only controls before ATP)
[2] = MBHA with DNA substrate, assay interference calculated with Equation 2

T1 sequence (Q9WMX2 1192-1657): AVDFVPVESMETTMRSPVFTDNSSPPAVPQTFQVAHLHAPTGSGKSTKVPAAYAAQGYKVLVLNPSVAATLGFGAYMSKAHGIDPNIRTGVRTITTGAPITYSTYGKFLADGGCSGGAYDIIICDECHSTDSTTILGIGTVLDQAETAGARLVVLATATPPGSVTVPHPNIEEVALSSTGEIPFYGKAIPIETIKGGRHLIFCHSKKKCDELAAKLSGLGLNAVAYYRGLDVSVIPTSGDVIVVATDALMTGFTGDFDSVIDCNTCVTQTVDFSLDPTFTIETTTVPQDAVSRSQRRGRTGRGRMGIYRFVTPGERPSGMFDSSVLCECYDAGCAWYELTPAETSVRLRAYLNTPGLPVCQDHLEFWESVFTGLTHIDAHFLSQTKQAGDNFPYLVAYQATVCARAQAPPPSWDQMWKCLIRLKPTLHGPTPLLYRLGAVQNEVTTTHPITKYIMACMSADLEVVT

Inh. (%) (Inhibition) (MBHA with a DNA substrate)	Int.* (Ratio) (Interference) [1]	Int.* (Ratio) (Interference) [2]	Inh. (%) (Inhibition) (MBHA with DNA substrate)	Inh. (%) (Inhibition) (MBHA with DNA substrate, 20 µM)	SMILES
8.6%	0.90 Ratio	–	–	–	COc1cc(CC(=O)c2cc3c(cc2-c2ccccc2)OCO3)cc(OC)c1OC [Compound 648419]
−6.7%	1.10 Ratio	–	–	–	CCOC(C)C(C=NNC(N)=S)=NNC(N)=S (stereo not shown) [Compound 82116]
−4.4%	1.05 Ratio	–	–	–	CC12CC(Br)(Br)C(=O)C3C1CCCC32 [Compound 624358]
–	–	0.81 Ratio	0.1%	–	CCCCCCCCCCNCCSSCc1ccc(Cl)cc1.Cl [Compound 624206]
–	–	0.81 Ratio	−15.3%	–	CN(C)c1ccc(/C=c2/sc3nc(=O)c(-c4ccccc4NC(=O)C(F)(F)F)nn3c2=O)cc1 [Compound 623095]
−27.4%	1.12 Ratio	–	–	–	COc1cc(-c2cc(=O)c3c(OC)c(OC)c(OC)c(OC)c3o2)cc(OC)c1OC [Compound 67580]
–	–	0.17 Ratio	138.7%	–	Cl.O=C1c2cccc(NCCCNCCO)c2C(=O)c2cccc(NCCCNCCO)c21 [Compound 363998]
6.9%	0.96 Ratio	–	–	–	Cc1cc(Cl)cc2c1NC(=O)C2(O)C(C(=O)c1ccccc1)c1ccccc1 (stereo not shown) [Compound 635435]
–	–	0.93 Ratio	14.5%	–	C=C(Cl)C(Cl)(CBr)CCC(Br)C(C)(C)Cl (stereo not shown) [Compound 662825]
11.0%	0.96 Ratio	–	–	–	CCCCCCCCCCSCC(CO)NC(=O)/C=C/c1c(C)[nH]c(=O)[nH]c1=O (stereo not shown) [Compound 265473]
–	–	0.87 Ratio	3.7%	–	O=C(O)c1ccc(NC(c2ccccc2)c2ccc3cccnc3c2O)cc1 (stereo not shown) [Compound 1011]
–	–	1.06 Ratio	–	−11.9%	Nc1ncnc2c1ncn2C1OC(CO)C(O)C1O (stereo not shown) [Compound 404241]
–	–	0.94 Ratio	−11.6%	–	C=CC(=O)N1C/C(=C\c2ccc([N+](=O)[O-])cc2)C(=O)/C(=C/c2ccc([N+](=O)[O-])cc2)C1 [Compound 687852]
–	–	1.03 Ratio	−8.2%	–	O=S(=O)(O)SC/C=C/CSS(=O)(=O)O [Compound 624161]
–	–	0.98 Ratio	20.4%	–	N#CC(c1ccccc1)N(CCCCCCN(C(=O)c1ccccc1)C(C#N)c1ccccc1)C(=O)c1ccccc1 (stereo not shown) [Compound 681744]
−26.2%	1.09 Ratio	–	–	–	O=[N+]([O-])c1cc(C(F)(F)F)cc([N+](=O)[O-])c1CCl [Compound 622627]
−43.3%	1.28 Ratio	–	–	–	NC1=NCN([C@@H]2O[C@H](CO)[C@@H](O)[C@H]2O)C(=O)N1 [Compound 264880]
–	–	1.10 Ratio	−18.9%	–	CN(C)CCOc1ccc(I)cc1Cc1ccccc1.Cl [Compound 11930]
–	–	0.85 Ratio	–	33.9%	Nc1ncnc2c1ncn2C1OC(CO)C(O)C1O (stereo not shown) [Compound 70422]

Inh. (%) (Inhibition) (MBHA with a DNA substrate)	Int.* (Ratio) (Interference) [1]	Int.* (Ratio) (Interference) [2]	Inh. (%) (Inhibition) (MBHA with DNA substrate)	Inh. (%) (Inhibition) (MBHA with DNA substrate, 20 µM)	SMILES
–	–	0.89 Ratio	−8.3%	–	C=C1C(=O)C2=CC1CCC(=O)C1(C)CCC(OC(C)=O)C(C)(C)C1CC2O (stereo not shown) [Compound 302979]
−4.4%	1.12 Ratio	–	–	–	O=C1C=CC(CC(=O)c2ccc3ccccc3c2)O1 (stereo not shown) [Compound 634650]
–	–	0.91 Ratio	−10.5%	–	C=C1C(=O)C23CC[C@@H]4C(C)(C(=O)OC)CCCC4(C)[C@@H]2CCC1(O)C3 (stereo partly shown) [Compound 620358]
−5.4%	0.98 Ratio	–	–	–	OCc1ccc(-c2ccc(-c3ccc(CO)s3)o2)s1 [Compound 652287]
−21.3%	1.06 Ratio	–	–	–	CCOC(=O)C1=C(C)NC(=S)NC1c1ccccc1 (stereo not shown) [Compound 643910]
–	–	1.14 Ratio	14.8%	–	O=C1NC(c2cccc3ccccc23)Nc2ccccc21 (stereo not shown) [Compound 145669]
–	–	1.01 Ratio	−14.4%	–	CC1OC(CC(=O)O)CC2=C1C(=O)c1c(O)cccc1C2=O (stereo not shown) [Compound 267461]
–	–	0.86 Ratio	25.9%	–	CC(CN(C)C)C(=O)c1ccccc1C(=O)O (stereo not shown) [Compound 22992]
–	–	1.07 Ratio	−9.6%	–	COc1ccc(/C=C2\Cc3ccccc3C2=O)cc1OC [Compound 643174]
–	–	1.09 Ratio	−12.3%	–	CN(C)c1ccc(/C=C2\Cc3ccccc3C2=O)cc1Br [Compound 643163]
−6.0%	1.02 Ratio	–	–	–	COC(=O)c1ccc(NCc2cc(O)ccc2O)cc1 [Compound 654705]
–	–	0.90 Ratio	−7.5%	–	C=CCOC1OC(CO[Si](C)(C)C(C)(C)C)C(OCc2ccccc2)C(OCc2ccccc2)C1OCc1ccccc1 (stereo not shown) [Compound 624953]
−6.1%	0.85 Ratio	–	–	–	Oc1[nH]c2ccccc2c1N=Nc1nc(-c2ccc(Br)cc2)cs1 [Compound 657456]
7.1%	1.11 Ratio	–	–	–	CC(=O)OCc1cc(=O)n(C)c2c3c4c(cc12)c(C)cc(=O)n4CO3 [Compound 157004]
–	–	0.92 Ratio	17.5%	–	NCCCNCCSP(=O)(O)O [Compound 296961]
–	–	1.10 Ratio	1.7%	–	OCC1OC(n2cnc3c(=S)nc[nH]c32)C(O)C1O (stereo not shown) [Compound 406021]
10.6%	0.97 Ratio	–	–	–	Nc1ccccc1N [Compound 5354]
–	–	0.87 Ratio	33.4%	–	COc1ccc(/C=C2/C(=O)N(C(=O)c3ccccc3O)N=C2C)cc1 [Compound 652174]
–	–	1.12 Ratio	6.1%	–	O=c1[nH]c(=O)n(C2OC(CO)C(O)C2O)cc1F (stereo not shown) [Compound 146604]

SMILES	Inh. (%) (Inhibition) (MBHA with a DNA substrate)	Int.* (Ratio) (Interference) [1]	Int.* (Ratio) (Interference) [2]	Inh. (%) (Inhibition) (MBHA with DNA substrate)	Inh. (%) (Inhibition) (MBHA with DNA substrate, 20 µM)
O=[N+]([O-])c1cc(C(F)(F)F)cc2n[se]nc12 [Compound 627371]	–	–	0.92 Ratio	−10.1%	–
C[C@@H]1CCOC(=O)/C=C/C=C\C(=O)O[C@@H]2C[C@H]3O[C@@H]4[C@@H]5O[C@]5(C)[C@H](O)C[C@]4(COC(=O)[C@H]1O)[C@]2(C)[C@@]31CO1 [Compound 328166]	–	–	1.04 Ratio	20.7%	–
CC(=O)[O][Hg][c]1c(C)c(C)c(C)c(C)c1C [Compound 174176]	–	–	1.04 Ratio	6.0%	–
CNC(=O)ON(C(C)=O)C(=O)NC [Compound 253272]	–	–	0.97 Ratio	5.5%	–
COc1cc([C@H]2c3cc4c(cc3C[C@@H]3COC(=O)[C@H]32)OCO4)cc(OC)c1OC [Compound 403148]	–	–	0.94 Ratio	16.8%	–
Oc1cccc2cccnc12 [Compound 285166]	–	–	0.95 Ratio	−2.2%	–
